Data reported in publication PMC5824344 (ACS Chemical Biology, 2017).
Where two headings read alike, the source gives them in different places.

Legend:
[1] = molecular target: T1, rat liver ER GluII (Rattus norvegicus, UniProt A0A8I6GFL3); assay: ER α-glucosidase II inhibition with native-like fluorescently labelled glycan substrate (HPLC); format: biochemical
T1 construct: Rat liver ER, II; from tissue; host or cells: liver of male Wistar rats
Procedure: % Inhibition (C) Glc1→ Glc0
Supplemental Figure 1: In vitro inhibition of GluII by 4. Enzyme activity assays were carried out using rat liver ER GluII with either α-p-nitrophenylglucoside ( α-PNPG, A) or ﬂuorescently labelled glycan ( B and C) as substrate. The curves show the relationship between ToP-DNJ 4 concentration and inhibition of the enzymatic activity. The iminosugar inhibits the enzymatic catalysis of the reactions indepen-dent of substrate, but with diﬀering IC 50 values: 9.0 µm for α-PNPG; 14 µm for Glc2Man7GlcNAc2; 56 µm for Glc1Man7GlcNAc2. […]
4 Enzyme Inhibition Assays
All rat enzymes were isolated from 18-week-old, male Wistar rats, while human lysosomal α-glucosidase was obtained in commercially available form from Sanoﬁ Genzyme. Inhibition of isolated glucosidases was evaluated as described previously. 3 Brieﬂy, maltase, isomaltase, sucrase, and cellobiase were used as partially puriﬁed tissue extracts. Inhibition assays for each enzyme were performed with the respective natural substrate, and release of d-glucose measured by Glucose B-test (Wako Diagnostics). Assays of rat ER α-glucosidase II and human lysosomal α-glucosidase inhibition were conducted with α-p-nitrophenylglucoside as substrate; 400 mm Na2CO3 was added to quench these reactions, and the extent of hydrolysis was evaluated as absorbance at 400 nm by spectrophotometer. […]

[2] = system: GluI and GluII in Raji (B lymphocyte) cells; assay: Free oligosaccharide (FOS) assay in Raji cells; format: cell-based, human; conditions: 48 h, 50 µm
Procedure: 5 Cell and Virus Culture and Assays
5.1 Culture of Cell Lines
The human hepatoma cell line Huh7.5 (Apath, LLC) was cultured in Dulbecco’s modiﬁed Eagle medium (DMEM) with Glutamax (Gibco) supplemented with 100 µg mL−1 strepto-mycin (Sigma), 100 U mL−1 penicillin (Sigma), 100 µm MEM non-essential amino acids (Gibco) and 10% (volume/volume, v/v) heat-inactivated (56 ◦C, 30 min) fetal calf serum (FCS, Seralab). The human monocytic cell line HL60 (ATCC), human T lymphocyte cell line Jurkat (ATCC), and human B lymphocyte cell line Raji (ATCC) were each maintained in RPMI 1640 media with Glutamax (Gibco) supplemented with 100 µg mL−1 streptomycin, 100 U mL−1 penicillin and 10% (v/v) FCS. […]
Cell viability was measured using the CellTiter 96 R© AQueous One Solution Cell Prolifera-tion MTA (3-(4,5-dimethylthiazol-2-yl)-5-(3-carboxymethoxyphenyl)-2-(4-sulfophenyl)-2H - […]
After a further one to two hour incubation, the absorbance at 490 nm was measured on a Molecular Devices SpectraMax M5 microplate reader. […]
Absorbances were averaged across replicates, and corrected for background by subtracting the value for media-only wells. Each drug treatment was then evaluated as a percentage of untreated cells. […]
FOS analysis was carried out as described previously. […] Before purifying the FOS, each sample was analyzed for protein content using the modiﬁed Bradford assay. […]

T1 sequence (A0A8I6GFL3 33-944): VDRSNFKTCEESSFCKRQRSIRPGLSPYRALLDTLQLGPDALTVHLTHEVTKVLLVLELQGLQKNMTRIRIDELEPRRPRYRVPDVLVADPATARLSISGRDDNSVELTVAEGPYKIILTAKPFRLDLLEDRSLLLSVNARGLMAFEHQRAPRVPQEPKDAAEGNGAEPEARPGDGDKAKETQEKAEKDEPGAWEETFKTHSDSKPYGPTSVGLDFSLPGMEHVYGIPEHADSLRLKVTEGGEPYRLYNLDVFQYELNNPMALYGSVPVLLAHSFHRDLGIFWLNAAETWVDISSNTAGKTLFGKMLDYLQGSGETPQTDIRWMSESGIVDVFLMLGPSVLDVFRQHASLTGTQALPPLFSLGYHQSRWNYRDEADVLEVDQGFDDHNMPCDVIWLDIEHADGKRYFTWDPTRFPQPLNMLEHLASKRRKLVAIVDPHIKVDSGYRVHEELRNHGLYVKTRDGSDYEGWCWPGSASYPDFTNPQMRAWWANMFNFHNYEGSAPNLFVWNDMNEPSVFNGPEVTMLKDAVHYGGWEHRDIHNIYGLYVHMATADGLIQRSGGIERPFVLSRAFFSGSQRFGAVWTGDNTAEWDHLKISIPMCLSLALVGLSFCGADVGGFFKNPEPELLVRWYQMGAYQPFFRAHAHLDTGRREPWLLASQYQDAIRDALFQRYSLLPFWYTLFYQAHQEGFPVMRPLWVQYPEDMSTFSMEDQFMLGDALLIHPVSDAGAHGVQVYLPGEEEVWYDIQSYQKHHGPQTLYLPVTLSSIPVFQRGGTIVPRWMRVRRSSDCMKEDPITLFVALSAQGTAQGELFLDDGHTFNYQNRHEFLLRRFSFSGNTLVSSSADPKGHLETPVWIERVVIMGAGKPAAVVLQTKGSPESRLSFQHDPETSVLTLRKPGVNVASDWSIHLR
T1 sequence (A0A8I6ADW9 1-525 partner): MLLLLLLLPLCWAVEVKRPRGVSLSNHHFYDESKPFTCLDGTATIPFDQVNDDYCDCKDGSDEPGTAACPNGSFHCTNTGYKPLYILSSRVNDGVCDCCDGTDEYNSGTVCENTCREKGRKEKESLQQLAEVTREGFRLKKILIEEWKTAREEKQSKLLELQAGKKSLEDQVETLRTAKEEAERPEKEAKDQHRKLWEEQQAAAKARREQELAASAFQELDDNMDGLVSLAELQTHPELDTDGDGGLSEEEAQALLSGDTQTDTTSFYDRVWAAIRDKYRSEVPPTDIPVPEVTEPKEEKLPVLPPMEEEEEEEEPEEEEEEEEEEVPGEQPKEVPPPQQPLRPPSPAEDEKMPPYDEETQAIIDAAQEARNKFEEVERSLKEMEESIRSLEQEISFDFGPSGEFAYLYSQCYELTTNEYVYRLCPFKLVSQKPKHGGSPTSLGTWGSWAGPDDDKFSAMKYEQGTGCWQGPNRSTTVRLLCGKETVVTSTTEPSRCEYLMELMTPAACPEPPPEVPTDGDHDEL

Cc1c(C)c2c(c(C)c1OCCCCCN1CC(O)C(O)C(O)C1CO)CCC(C)(CCCC(C)CCCC(C)CCCC(C)C)O2 (stereo not shown) [Compound 4, 5′-tocopheroxypentyl-DNJ]
IC50 ([1]; first GluII reaction, fluorescently labelled Glc2Man7GlcNAc1 substrate, read-out: IC50 for the conversion of diglucosylated to monoglucosylated glycan by GluII): 14 µM
IC50 ([1]; second GluII reaction, fluorescently labelled glycan substrate, read-out: IC50 for the conversion of monoglucosylated to nonglucosylated glycan by GluII): 56 µM
glucosylated free oligosaccharides (FOS) observed after treatment [2]: nor Raji
glucosylated free oligosaccharides (FOS) observed after treatment ([2]; listed as ToP-DNJ 4): no glucosylated FOS were detected
